Target: SARS-CoV M^pro (Severe acute respiratory syndrome-related coronavirus, UniProt P0C6X7)
Test: biochemical
Assay type: biochemical

SMILES	IC50
O=C(/C=C/c1ccccc1)N[C@@H](Cc1ccccc1)C(=O)N[C@@H](C[C@@H]1CCNC1=O)C(=O)C(=O)NCc1ccccc1 [11a, (S)-N-benzyl-3-((S)-2-cinnamamido-3-phenylpropanamido)-2-oxo-4-((S)-2-oxopyrrolidin-3-yl)butanamide]	1950 ± 240 nM
CC(C)(C)OC(=O)N[C@@H](C[C@@H]1CCNC1=O)C(=O)C(=O)NCc1ccccc1 [11f, tert-Butyl ((S)-4-(benzylamino)-3,4-dioxo-1-((S)-2-oxopyrrolidin-3-yl)butan-2-yl)carbamate]	> 50000 nM
O=C(/C=C/c1ccccc1)N[C@@H](Cc1ccc(F)cc1)C(=O)N[C@@H](C[C@@H]1CCNC1=O)C(=O)C(=O)NCc1ccccc1 [11m, (S)-N-benzyl-3-((S)-2-cinnamamido-3-(4-fluorophenyl)propanamido)-2-oxo-4-((S)-2-oxopyrrolidin-3-yl)butanamide]	> 50000 nM
CC(C)C[C@H](NC(=O)/C=C/c1ccccc1)C(=O)N[C@@H](C[C@@H]1CCNC1=O)C(=O)C(=O)NCc1ccccc1 [11n, (S)-N-((S)-4-(benzylamino)-3,4-dioxo-1-((S)-2-oxopyrrolidin-3-yl)butan-2-yl)-2-cinnamamido-4-methylpentanamide]	330 ± 40 nM
CCCC[C@H](NC(=O)/C=C/c1ccccc1)C(=O)N[C@@H](C[C@@H]1CCNC1=O)C(=O)C(=O)NCc1ccccc1 [11o, (S)-N-((S)-4-(benzylamino)-3,4-dioxo-1-((S)-2-oxopyrrolidin-3-yl)butan-2-yl)-2-cinnamamidohexanamide]	8500 ± 3710 nM
C#CC[C@H](NC(=O)/C=C/c1ccccc1)C(=O)N[C@@H](C[C@@H]1CCNC1=O)C(=O)C(=O)NCc1ccccc1 [11p, (S)-N-((S)-4-(benzylamino)-3,4-dioxo-1-((S)-2-oxopyrrolidin-3-yl)butan-2-yl)-2-cinnamamidopent-4-ynamide]	10700 ± 7340 nM
O=C(/C=C/c1ccccc1)N[C@H](C(=O)N[C@@H](C[C@@H]1CCNC1=O)C(=O)C(=O)NCc1ccccc1)C1CC1 [11q, (S)-N-benzyl-3-((S)-2-cinnamamido-2-cyclopropylacetamido)-2-oxo-4-((S)-2-oxopyrrolidin-3-yl)butanamide]	6270 ± 2870 nM
O=C(/C=C/c1ccccc1)N[C@@H](CC1CCCCC1)C(=O)N[C@@H](C[C@@H]1CCNC1=O)C(=O)C(=O)NCc1ccccc1 [11r, (S)-N-benzyl-3-((S)-2-cinnamamido-3-cyclohexylpropanamido)-2-oxo-4-((S)-2-oxopyrrolidin-3-yl)butanamide]	710 ± 360 nM
O=C(/C=C/c1ccccc1)N[C@@H](CC1CC1)C(=O)N[C@@H](C[C@@H]1CCNC1=O)C(=O)C(=O)NCc1ccccc1 [11s, (S)-N-benzyl-3-((S)-2-cinnamamido-3-cyclopropylpropanamido)-2-oxo-4-((S)-2-oxopyrrolidin-3-yl)butanamide]	240 ± 80 nM
O=C(/C=C/c1ccccc1)N[C@@H](CC1CCC1)C(=O)N[C@@H](C[C@@H]1CCNC1=O)C(=O)C(=O)NCc1ccccc1 [11t, (S)-N-benzyl-3-((S)-2-cinnamamido-3-cyclobutylpropanamido)-2-oxo-4-((S)-2-oxopyrrolidin-3-yl)butanamide]	1440 ± 400 nM
O=C(/C=C/c1ccccc1)N[C@@H](CC1CCCC1)C(=O)N[C@@H](C[C@@H]1CCNC1=O)C(=O)C(=O)NCc1ccccc1 [11u, (S)-N-benzyl-3-((S)-2-cinnamamido-3-cyclopentylpropanamido)-2-oxo-4-((S)-2-oxopyrrolidin-3-yl)butanamide]	1270 ± 340 nM

Source: paper doi:10.1101/2020.02.10.936898v1 (biorxiv, 2020)
